Test results as given in patent US4376778A, “Antibiotic substances and processes for production thereof” (Meiji Seika Kaisha, Ltd., priority 1979, dated 1983).
Converted amounts (≈) assume the structure as drawn.

How the values were obtained:
Trichophyton asteroides [1] = test: Infection treatment test of guinea pigs infected by Trichophyton asteroides, infected organism cultivation positive ratio; assay type: in vivo, Trichophyton asteroides; guinea pig; settings: for infected organism cultivation positive ratio: after 8 days treatment, 1% solution, guinea pig
Description: (§1) An infection treatment test of guinea pigs infected by a strain of Trichophyton asteroides on their backs was carried out using the liquid preparation having formulation as shown in Table 6.
(§2) Hairs were pulled off from a white Hartly guinea pig (4 guinea pigs per group) at 4 areas of the back thereof (2 areas on each side, 4×6 cm) and a Trichophyton asteroides-floating solution (liquid Sabouraud's culture medium; number of living cells: 2×10^7 /ml) was infected with a brush in an amount of 0.5 ml per each area. After 2 days from the infection, 0.25 ml of a 1% solution of SF-2080A substance (see Table 6) was applied at one area on each side, once a day and continuously for 8 days.
(§3) The same procedure as above was carried out, except using a 1% solution of pyrrolnitrin and a 1% solution of clotrimazole. Guinea pigs so treated were compared with those to which no treatment was applied.
After treatment for 8 days, 3 skin pieces were collected from each affecte area and cultivated on a Sabouraud's agar plate for 7 days to observe the infected organism cultivation positive ratio.

Trichophyton asteroides [2] = test: Infection treatment test of guinea pigs infected by Trichophyton asteroides, observation with the naked eye; assay type: in vivo, Trichophyton asteroides; guinea pig; settings: for Effect on flush / Effect on scale / Effect on thickening of the affected skin: guinea pig, 1% solution, topical, once a day for 8 days, naked eye
Description: as §1, §2, §3

Aspergillus fumigatus [3] = test: MIC by agar dilution method, Aspergillus fumigatus; assay type: cell-based; settings: read-out: Minimum Inhibitory Concentration
Description: (§4) The minimum inhibitory concentrations of the SF-2080A substance and SF-2080B substance against various microorganisms as measured by the agar dilution method are shown in Table 4 below.

[4] = system: Shigella dysenteriae Shigae; test: microbe, parasite or virus in culture; assay type: cell-based; settings: read-out: Minimum Inhibitory Concentration
[5] = system: Bacillus subtilis ATCC 6633; test: MIC by agar dilution method, Bacillus subtilis ATCC 6633; assay type: cell-based; settings: ATCC6633; Bacillus subtilis ATCC 6633, agar dilution; read-out: Minimum Inhibitory Concentration
Description: as §4

[6] = system: Klebsiella pneumoniae ATCC 27763; test: MIC by agar dilution method, Klebsiella pneumoniae ATCC 27763; assay type: cell-based; settings: ATCC27763; Klebsiella pneumoniae ATCC 27763, agar dilution; read-out: Minimum Inhibitory Concentration
Description: as §4

[7] = system: Staphylococcus aureus Smith; test: MIC by agar dilution method, Staphylococcus aureus Smith; assay type: cell-based; settings: read-out: Minimum Inhibitory Concentration
Description: as §4

[8] = system: Trichophyton interdigital; test: MIC by agar dilution method, Trichophyton interdigital; assay type: cell-based; settings: read-out: Minimum Inhibitory Concentration
Description: as §4

[9] = system: Staphylococcus epidermidis ATCC 14990; test: MIC by agar dilution method, Staphylococcus epidermidis ATCC 14990; assay type: cell-based; settings: ATCC14990; Staphylococcus epidermidis ATCC 14990, agar dilution; read-out: Minimum Inhibitory Concentration
Description: as §4

[10] = system: Pseudomonas aeruginosa IAM 1007; test: MIC by agar dilution method, Pseudomonas aeruginosa IAM 1007; assay type: cell-based; settings: IAM1007; Pseudomonas aeruginosa IAM 1007, agar dilution; read-out: Minimum Inhibitory Concentration
Description: as §4

[11] = system: Escherichia coli NIHJ JC-2; test: MIC by agar dilution method, Escherichia coli NIHJ JC-2; assay type: cell-based; settings: NIHJJC2; Escherichia coli NIHJ JC-2, agar dilution; read-out: Minimum Inhibitory Concentration
Description: as §4

[12] = system: Cryptococcus neoformans Cr-1; test: MIC by plate dilution method, Cryptococcus neoformans CR-1; assay type: cell-based; settings: CR1; Cryptococcus neoformans CR-1, plate dilution; read-out: minimum growth inhibitory concentration (MIC)
Description: (§5) The minimum growth inhibitory concentration (MIC) against each test strain according to the plate dilution method is shown below: […]

[13] = system: Trichophyton interdigitale; test: MIC by plate dilution method, Trichophyton interdigitale; assay type: cell-based; settings: read-out: minimum growth inhibitory concentration (MIC)
Description: as §5

[14] = Acute toxicity by intraperitoneal administration in mice; settings: mouse, in vivo, ip
Salmonella typhi O-901-W = test: MIC by agar dilution method, Salmonella typhi O-901-W; assay type: cell-based; settings: Salmonella enterica, read-out: Minimum Inhibitory Concentration
[15] = system: Serratia marcescens No. 1; test: MIC by agar dilution method, Serratia marcescens No. 1; assay type: cell-based; settings: Serratia marcescens No. 1, agar dilution; read-out: Minimum Inhibitory Concentration
Description: as §4

Aspergillus fumigatus [16] = test: MIC by plate dilution method, Aspergillus fumigatus; assay type: cell-based; settings: read-out: minimum growth inhibitory concentration (MIC)
Description: as §5

Proteus vulgaris OX-19 = test: MIC by agar dilution method, Proteus vulgaris OX-19; assay type: cell-based; settings: OX19; Proteus vulgaris OX-19, agar dilution; read-out: Minimum Inhibitory Concentration
Description: as §4

[17] = system: Escherichia coli K-12 IAM 1264; test: MIC by agar dilution method, Escherichia coli K-12 IAM 1264; assay type: cell-based; settings: IAM1264; Escherichia coli K-12 IAM 1264, agar dilution; read-out: Minimum Inhibitory Concentration
Description: as §4

Candida albicans C-A-24 = test: MIC by plate dilution method, Candida albicans C-A-24; assay type: cell-based; settings: CA24; Candida albicans C-A-24, plate dilution; read-out: minimum growth inhibitory concentration (MIC)
Description: as §5

Pyricularia oryzae = test: microbe, parasite or virus in culture; assay type: cell-based; settings: read-out: Minimum Inhibitory Concentration
Trichophyton asteroides [18] = test: MIC by plate dilution method, Trichophyton asteroides; assay type: cell-based; settings: read-out: minimum growth inhibitory concentration (MIC)
Description: as §5

Trichophyton asteroides [19] = test: MIC by agar dilution method, Trichophyton asteroides; assay type: cell-based; settings: read-out: Minimum Inhibitory Concentration
Description: as §4

Solubility = assay type: physicochemical
Diaporthe citri = test: MIC by agar dilution method, Diaporthe citri; assay type: cell-based; settings: read-out: Minimum Inhibitory Concentration
Description: as §4

[20] = system: Staphylococcus aureus FDA 209P JC-1; test: MIC by agar dilution method, Staphylococcus aureus FDA 209P JC-1; assay type: cell-based; settings: FDA209P; Staphylococcus aureus FDA 209P JC-1, agar dilution; read-out: Minimum Inhibitory Concentration
Description: as §4

fungi = test: Plate dilution method, fungi (overall statement); assay type: cell-based; settings: overall statement in words
Description: as §5

[21] = system: Cryptococcus neoformans Cr-1; test: MIC by agar dilution method, Cryptococcus neoformans Cr-1; assay type: cell-based; settings: CR1; Cryptococcus neoformans Cr-1, agar dilution; read-out: Minimum Inhibitory Concentration
Description: as §4

various microorganisms = test: Agar dilution method, various microorganisms (overall statement); assay type: cell-based; settings: overall statement in words
Description: as §4

[22] = as compared with pyrrolnitrin and clotrimazole, statement in words

Structure (SMILES) | infected organism cultivation positive ratio (Trichophyton asteroides [1]; day of cultivation 3) | infected organism cultivation positive ratio (Trichophyton asteroides [1]; day of cultivation 5) | infected organism cultivation positive ratio (Trichophyton asteroides [1]; day of cultivation 7) | Effect on flush (Trichophyton asteroides [2]) | Effect on scale (Trichophyton asteroides [2]) | Effect on thickening of the affected skin (Trichophyton asteroides [2]) | MIC (Aspergillus fumigatus [3]) | MIC [4] | MIC [5] | MIC [6] | MIC [7] | MIC [8] | MIC [9] | MIC [10] | MIC [11] | MIC (Salmonella typhi O-901-W) | MIC [15] | MIC (Proteus vulgaris OX-19) | MIC [17] | MIC (Pyricularia oryzae) | also measured
Clc1ccccc1C(c1ccccc1)(c1ccccc1)n1ccnc1 [clotrimazole] | 75% | 96% | 96% | Ineffective | Effective | Effective | – | – | – | – | – | – | – | – | – | – | – | – | – | – | –
O=[N+]([O-])c1c[nH]c(Cl)c1Cl [SF-2080A substance] | 25% | 37% | 37% | – | – | – | 25 µg/mL (≈ 138 µM) | 3.13 µg/mL (≈ 17.3 µM) | 1.56 µg/mL (≈ 8.62 µM) | 6.25 µg/mL (≈ 34.5 µM) | 3.13 µg/mL (≈ 17.3 µM) | 1.56 µg/mL (≈ 8.62 µM) | 3.13 µg/mL (≈ 17.3 µM) | 6.25 µg/mL (≈ 34.5 µM) | 6.25 µg/mL (≈ 34.5 µM) | 6.25 µg/mL (≈ 34.5 µM) | 6.25 µg/mL (≈ 34.5 µM) | 6.25 µg/mL (≈ 34.5 µM) | 6.25 µg/mL (≈ 34.5 µM) | 0.8 µg/mL (≈ 4.42 µM) | therapeutic effect, cultivation positive ratio (Trichophyton asteroides [1]; [22]): excellent therapeutic effects; decrease in the cultivation positive ratio (Trichophyton asteroides [1]; compared with pyrrolnitrin-dosed, clotrimazole-dosed and no treatment groups, in words): evident decrease; MIC [12]: 25 µg/mL (≈ 138 µM); MIC [13]: 1.56 µg/mL (≈ 8.62 µM); therapeutic effect, observation with the naked eye (Trichophyton asteroides [2]; [22]): excellent therapeutic effects; treatment effect in thickening of the affected skin, flush, and scale (Trichophyton asteroides [2]; compared with 1% pyrrolnitrin and 1% clotrimazole, statement in words): best treatment effect; acute toxicity, survival ([14]; 10 mg/kg): all mice survived; acute toxicity, mortality ([14]; 30 mg/kg): all mice died; MIC (Aspergillus fumigatus [16]): 25 µg/mL (≈ 138 µM); MIC (Candida albicans C-A-24): 100 µg/mL (≈ 553 µM); MIC (Trichophyton asteroides [18]): 3.12 µg/mL (≈ 17.2 µM); MIC (Trichophyton asteroides [19]): 3.12 µg/mL (≈ 17.2 µM); Solubility in acetone (Solubility): easily soluble; Solubility in chloroform (Solubility): soluble; Solubility in methanol (Solubility): easily soluble; MIC (Diaporthe citri): 0.8 µg/mL (≈ 4.42 µM); MIC [20]: 1.56 µg/mL (≈ 8.62 µM); inhibition of growth of fungi (fungi): inhibits the growth of fungi; MIC [21]: 25 µg/mL (≈ 138 µM); antibacterial/antimicrobial effectiveness against the strains tested (various microorganisms): generally effective against all strains of bacteria tested
O=[N+]([O-])c1c(Cl)cccc1-c1c[nH]cc1Cl [pyrrolnitrin] | 62% | 87% | 87% | Ineffective | Ineffective | Effective | – | – | – | – | – | – | – | – | – | – | – | – | – | – | –
O=[N+]([O-])c1c(Cc2cc(Cl)cc(Cl)c2O)[nH]c(Cl)c1Cl [SF-2080B substance] | – | – | – | – | – | – | > 100 µg/mL | 50 µg/mL (≈ 140 µM) | 0.1 µg/mL (≈ 0.281 µM) | > 100 µg/mL | 0.2 µg/mL (≈ 0.562 µM) | 100 µg/mL (≈ 281 µM) | 0.1 µg/mL (≈ 0.281 µM) | > 100 µg/mL | 100 µg/mL (≈ 281 µM) | 50 µg/mL (≈ 140 µM) | > 100 µg/mL | 0.78 µg/mL (≈ 2.19 µM) | 100 µg/mL (≈ 281 µM) | 3.13 µg/mL (≈ 8.79 µM) | acute toxicity, fraction of mice that survived ([14]; 100 mg/kg): 2/3; MIC (Trichophyton asteroides [19]): > 100 µg/mL; Solubility in acetone (Solubility): easily soluble; Solubility in chloroform (Solubility): soluble; Solubility in methanol (Solubility): easily soluble; MIC (Diaporthe citri): 0.4 µg/mL (≈ 1.12 µM); MIC [20]: 0.2 µg/mL (≈ 0.562 µM); MIC [21]: > 100 µg/mL; antibacterial/antimicrobial effectiveness against the strains tested (various microorganisms): very effective against a limited number of strains, but it is less active or lacks toward the others
